Laboratory results taken from the NIST ThermoML archive (doi:10.1016/j.jct.2012.05.012).

Experiments:
[1] = wn = mass fraction of the nth substance listed; conditions: for surface tension liquid-gas: Maximal bubble pressure; for mass density: 101 kPa, Liquid, Vibrating tube method
[2] = refractive index (Na D-line) (dimensionless); wn = mass fraction of the nth substance listed; conditions: 101 kPa, Liquid, Standard Abbe refractometry

CCCCn1cc[n+](C)c1.NCC(=O)[O-] [1-butyl-3-methylimidazolium glycinate] + O
Conditions	mass density [kg/m3]	refractive index	surface tension liquid-gas [mN/m]
[1], 283.15 K, w2 = 0.0081	1121.2	–	45.7
[1], 283.15 K, w2 = 0.0091	–	–	45.9
[1], 283.15 K, w2 = 0.0102	–	–	46.1
[1], 283.15 K, w2 = 0.0118	–	–	46.3
[1], 283.15 K, w2 = 0.0129	1121.5	–	–
[1], 283.15 K, w2 = 0.0131	–	–	46.6
[1], 283.15 K, w2 = 0.018	1121.8	–	–
[1], 283.15 K, w2 = 0.0234	1122.2	–	–
[1], 283.15 K, w2 = 0.0293	1122.6	–	–
[1], 288.15 K, w2 = 0.0081	1118	–	45.5
[1], 288.15 K, w2 = 0.0091	–	–	45.7
[1], 288.15 K, w2 = 0.0102	–	–	45.9
[1], 288.15 K, w2 = 0.0118	–	–	46.2
[1], 288.15 K, w2 = 0.0129	1118.3	–	–
[1], 288.15 K, w2 = 0.0131	–	–	46.4
[1], 288.15 K, w2 = 0.018	1118.7	–	–
[1], 288.15 K, w2 = 0.0234	1119.1	–	–
[1], 288.15 K, w2 = 0.0293	1119.5	–	–
[1], 293.15 K, w2 = 0.0081	1114.8	–	45.3
[1], 293.15 K, w2 = 0.0091	–	–	45.5
[1], 293.15 K, w2 = 0.0102	–	–	45.7
[1], 293.15 K, w2 = 0.0118	–	–	46
[1], 293.15 K, w2 = 0.0129	1115.1	–	–
[1], 293.15 K, w2 = 0.0131	–	–	46.2
[1], 293.15 K, w2 = 0.018	1115.5	–	–
[1], 293.15 K, w2 = 0.0234	1115.9	–	–
[1], 293.15 K, w2 = 0.0293	1116.3	–	–
[1], 298.15 K, w2 = 0.0081	1111.5	–	45
[1], 298.15 K, w2 = 0.0091	–	–	45.2
[1], 298.15 K, w2 = 0.0102	–	–	45.4
[1], 298.15 K, w2 = 0.0118	–	–	45.7
[1], 298.15 K, w2 = 0.0129	1111.9	–	–
[1], 298.15 K, w2 = 0.0131	–	–	45.9
[1], 298.15 K, w2 = 0.018	1112.3	–	–
[1], 298.15 K, w2 = 0.0234	1112.7	–	–
[1], 298.15 K, w2 = 0.0293	1113.1	–	–
[1], 303.15 K, w2 = 0.0081	1108.4	–	44.8
[1], 303.15 K, w2 = 0.0091	–	–	45
[1], 303.15 K, w2 = 0.0102	–	–	45.2
[1], 303.15 K, w2 = 0.0118	–	–	45.5
[1], 303.15 K, w2 = 0.0129	1108.9	–	–
[1], 303.15 K, w2 = 0.0131	–	–	45.8
[1], 303.15 K, w2 = 0.018	1109.3	–	–
[1], 303.15 K, w2 = 0.0234	1109.7	–	–
[1], 303.15 K, w2 = 0.0293	1110.2	–	–
[1], 308.15 K, w2 = 0.0081	1105.4	–	44.5
[1], 308.15 K, w2 = 0.0091	–	–	44.7
[1], 308.15 K, w2 = 0.0102	–	–	44.9
[1], 308.15 K, w2 = 0.0118	–	–	45.2
[1], 308.15 K, w2 = 0.0129	1105.7	–	–
[1], 308.15 K, w2 = 0.0131	–	–	45.5
[1], 308.15 K, w2 = 0.018	1106.2	–	–
[1], 308.15 K, w2 = 0.0234	1106.6	–	–
[1], 308.15 K, w2 = 0.0293	1107.1	–	–
[1], 313.15 K, w2 = 0.0081	1102.2	–	44.2
[1], 313.15 K, w2 = 0.0091	–	–	44.4
[1], 313.15 K, w2 = 0.0102	–	–	44.6
[1], 313.15 K, w2 = 0.0118	–	–	44.9
[1], 313.15 K, w2 = 0.0129	1102.6	–	–
[1], 313.15 K, w2 = 0.0131	–	–	45.2
[1], 313.15 K, w2 = 0.018	1103	–	–
[1], 313.15 K, w2 = 0.0234	1103.4	–	–
[1], 313.15 K, w2 = 0.0293	1103.9	–	–
[1], 318.15 K, w2 = 0.0081	1099.2	–	43.7
[1], 318.15 K, w2 = 0.0091	–	–	43.9
[1], 318.15 K, w2 = 0.0102	–	–	44.1
[1], 318.15 K, w2 = 0.0118	–	–	44.4
[1], 318.15 K, w2 = 0.0129	1099.5	–	–
[1], 318.15 K, w2 = 0.0131	–	–	44.6
[1], 318.15 K, w2 = 0.018	1099.9	–	–
[1], 318.15 K, w2 = 0.0234	1100.3	–	–
[1], 318.15 K, w2 = 0.0293	1100.7	–	–
[1], 323.15 K, w2 = 0.0081	1096.1	–	43.3
[1], 323.15 K, w2 = 0.0091	–	–	43.5
[1], 323.15 K, w2 = 0.0102	–	–	43.7
[1], 323.15 K, w2 = 0.0118	–	–	44
[1], 323.15 K, w2 = 0.0129	1096.4	–	–
[1], 323.15 K, w2 = 0.0131	–	–	44.2
[1], 323.15 K, w2 = 0.018	1096.8	–	–
[1], 323.15 K, w2 = 0.0234	1097.2	–	–
[1], 323.15 K, w2 = 0.0293	1097.6	–	–
[1], 328.15 K, w2 = 0.0081	1092.9	–	42.9
[1], 328.15 K, w2 = 0.0091	–	–	43.1
[1], 328.15 K, w2 = 0.0102	–	–	43.3
[1], 328.15 K, w2 = 0.0118	–	–	43.5
[1], 328.15 K, w2 = 0.0129	1093.2	–	–
[1], 328.15 K, w2 = 0.0131	–	–	43.8
[1], 328.15 K, w2 = 0.018	1093.6	–	–
[1], 328.15 K, w2 = 0.0234	1094	–	–
[1], 328.15 K, w2 = 0.0293	1094.4	–	–
[2], 293.15 K, w2 = 0.0081	–	1.4993	–
[2], 293.15 K, w2 = 0.0102	–	1.4968	–
[2], 293.15 K, w2 = 0.0121	–	1.4944	–
[2], 293.15 K, w2 = 0.014	–	1.4918	–
[2], 293.15 K, w2 = 0.0161	–	1.4896	–
[2], 298.15 K, w2 = 0.0081	–	1.4982	–
[2], 298.15 K, w2 = 0.0102	–	1.4954	–
[2], 298.15 K, w2 = 0.0121	–	1.4928	–
[2], 298.15 K, w2 = 0.014	–	1.4907	–
[2], 298.15 K, w2 = 0.0161	–	1.4879	–
[2], 303.15 K, w2 = 0.0081	–	1.497	–
[2], 303.15 K, w2 = 0.0102	–	1.4941	–
[2], 303.15 K, w2 = 0.0121	–	1.4916	–
[2], 303.15 K, w2 = 0.014	–	1.4895	–
[2], 303.15 K, w2 = 0.0161	–	1.4869	–
[2], 308.15 K, w2 = 0.0081	–	1.4955	–
[2], 308.15 K, w2 = 0.0102	–	1.4927	–
[2], 308.15 K, w2 = 0.0121	–	1.4907	–
[2], 308.15 K, w2 = 0.014	–	1.4884	–
[2], 308.15 K, w2 = 0.0161	–	1.4858	–
[2], 313.15 K, w2 = 0.0081	–	1.4943	–
[2], 313.15 K, w2 = 0.0102	–	1.4915	–
[2], 313.15 K, w2 = 0.0121	–	1.4893	–
[2], 313.15 K, w2 = 0.014	–	1.4872	–
[2], 313.15 K, w2 = 0.0161	–	1.4845	–
[2], 318.15 K, w2 = 0.0081	–	1.4931	–
[2], 318.15 K, w2 = 0.0102	–	1.4904	–
[2], 318.15 K, w2 = 0.0121	–	1.4879	–
[2], 318.15 K, w2 = 0.014	–	1.4855	–
[2], 318.15 K, w2 = 0.0161	–	1.4832	–
[2], 323.15 K, w2 = 0.0081	–	1.4917	–
[2], 323.15 K, w2 = 0.0102	–	1.4888	–
[2], 323.15 K, w2 = 0.0121	–	1.4864	–
[2], 323.15 K, w2 = 0.014	–	1.4838	–
[2], 323.15 K, w2 = 0.0161	–	1.4814	–
